Measured values published in patent publication US11078183B2, “Tetrahydrate of H3 ligand, its process of preparation and pharmaceutical compositions comprising the same” (BIOPROJET, priority 2017, dated 2021).
Where a name gives a salt, the structure may show the parent alone. Read-outs that look alike come from different tables or passages of the source.

Key:
[1] = Degradation on drying (main impurity over drying time); type: physicochemical; conditions: for Main impurity: drying at 60° C.
Description: Drying was not complete at 60° C. over 24 hours.

[2] = Stability studies according to ICH (purity on anhydrous substance over time); type: physicochemical; conditions: for purity on anhydrous substance: specifications 98.0-102.0%; for degradation observed (in words): up to 6 months
Description: Stability studies have been performed according to ICH.
Similar results were obtained for the 3 months sample at 30° C./65% relative humidity:
Stability has been assessed under ICH conditions.

[3] = Hygroscopy: water content over storage time; type: physicochemical
Excerpt: This compound is hygroscopic. It uptakes water during time.

[4] = Degradation on drying (main impurity over drying time); type: physicochemical
[5] = target: histamine H3 (Homo sapiens, UniProt Q9Y5N1); conditions: among the H3 ligands disclosed in WO 2006/117609; cited from earlier work
Chain of histamine H3 (Q9Y5N1 whole entry): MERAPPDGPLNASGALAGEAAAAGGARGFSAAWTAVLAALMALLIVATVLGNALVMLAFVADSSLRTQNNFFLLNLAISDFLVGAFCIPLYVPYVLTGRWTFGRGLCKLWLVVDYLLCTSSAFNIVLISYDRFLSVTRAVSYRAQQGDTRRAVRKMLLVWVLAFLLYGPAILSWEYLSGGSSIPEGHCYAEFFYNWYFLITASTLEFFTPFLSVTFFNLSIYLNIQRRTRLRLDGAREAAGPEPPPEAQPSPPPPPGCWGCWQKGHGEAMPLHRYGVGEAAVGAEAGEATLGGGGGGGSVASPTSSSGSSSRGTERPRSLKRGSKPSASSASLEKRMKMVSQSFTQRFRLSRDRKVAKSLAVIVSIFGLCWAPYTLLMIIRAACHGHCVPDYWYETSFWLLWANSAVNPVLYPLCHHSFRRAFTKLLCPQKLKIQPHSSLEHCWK

[6] = 40° C./75% relative humidity, 0 months
[7] = 40° C./75% relative humidity, 1 month
[8] = 40° C./75% relative humidity, 3 months
[9] = 40° C./75% relative humidity, 6 months

C[C@H]1CCCN(CCCOc2ccc(-c3cc[n+]([O-])cc3)cc2)C1 [Example 52 of WO 2006/117609, (3S)-4-{4-[3-(3-methylpiperidin-1-yl)propoxy]phenyl}pyridine 1-oxide, dihydrochloride]
completeness of drying (in words) ([1]; drying at 60° C. over 24 hours): not complete | Main impurity ([1]; 0 hr): 0.08% | Main impurity ([1]; 8 hr): 0.08% | Main impurity ([1]; 12 hr): 0.08% | Main impurity ([1]; 24 hr): 0.10% | purity on anhydrous substance ([2]; 30° C./65% relative humidity, 0 months): 100.2 | purity on anhydrous substance ([2]; 30° C./65% relative humidity, 3 months): 98.4 | purity on anhydrous substance ([2]; 40° C./75% relative humidity, 0 months, dihydrochloride): 100.2 | purity on anhydrous substance ([2]; 40° C./75% relative humidity, 1 month, dihydrochloride): 100.8 | purity on anhydrous substance ([2]; 40° C./75% relative humidity, 3 months, dihydrochloride): 98.2 | purity on anhydrous substance ([2]; 40° C./75% relative humidity, 6 months, dihydrochloride): 98.4 | degradation observed (in words) ([2]; 40° C./75% relative humidity, dihydrochloride): some degradation is observed | loss of purity ([2]; within six months, 40° C./75% relative humidity): 2% | water content ([3]; batch stored under Good Manufacturing Practice, 0 months): 1 % in weight | water content ([3]; batch stored under Good Manufacturing Practice, 6 months): 2 % in weight | water content ([3]; batch stored under Good Manufacturing Practice, 11 months): 4 % in weight | hygroscopicity (in words) ([3]; dihydrochloride): hygroscopic | hygroscopicity (in words) ([3]; listed as dihydrochloride salt, dihydrochloride): too hygroscopic | outcome of drying (in words) ([4]; drying at 80° C. or 100° C., complete removal of water): some decomposition occurred | Main impurity ([4]; drying at 80° C., 0 hr): 0.08% | Main impurity ([4]; drying at 80° C., 8 hr): 0.11% | Main impurity ([4]; drying at 80° C., 16 hr): 0.12% | Main impurity ([4]; drying at 80° C., 24 hr): 0.14% | Main impurity ([4]; drying at 100° C., 0 hr): 0.08% | Main impurity ([4]; drying at 100° C., 8 hr): 0.32% | Main impurity ([4]; drying at 100° C., 16 hr): 0.44%

C[C@H]1CCCN(CCCOc2ccc(-c3cc[n+]([O-])cc3)cc2)C1 [Example 1, (3S)-4-{4-[3-(3-methylpiperidin-1-yl)propoxy]phenyl}pyridine 1-oxide, dihydrochloride, tetrahydrate]
purity on anhydrous substance [2, 6]: 99.6 | purity on anhydrous substance [2, 7]: 100.3 | purity on anhydrous substance [2, 8]: 99.7 | purity on anhydrous substance [2, 9]: 100.3 | degradation observed (in words) ([2]; 40° C./75% relative humidity): no degradation is observed | hygroscopicity (in words) [3]: not hygroscopic | water content [3, 6]: 16 % in weight | water content [3, 7]: 16 % in weight | water content [3, 8]: 15 % in weight | water content [3, 9]: 16 % in weight | water content ([3]; 40° C./75% relative humidity, 12 months): 15 % in weight | water content modification (in words) ([3]; 40° C./75% relative humidity, up to 12 months): no water content modification is observed

C[C@H]1CCCN(CCCOc2ccc(-c3cc[n+]([O-])cc3)cc2)C1 [(3S)-4-{4-[3-(3-methylpiperidin-1-yl)propoxy]phenyl}pyridine 1-oxide]
potency as H3 ligand (in words) [5]: very potent
